Assay results from patent US11492667B2, “Compositions and methods for detecting molecular targets on chromosomal DNA” (New England Biolabs, Inc., priority 2020, dated 2022).

Key:
[1] = tested on: Nt.CviPII-Protein A fusion; assay: Inhibition of nicking activity of Nt.CviPII-Protein A fusion by heparin sodium salt; assay type: biochemical; conditions: 2.5 units Nt.CviPII-Protein A, 0.5 μg pUC19, NEBuffer 2, 40 minutes 37° C.
Description: In lanes 1-9, 2.5 units of NEFP was added to 0.5 μgs of plasmid DNA in the presence of increasing amounts of heparin (0.15-10 mg/ml). Digestion was not observed when 0.3 mg heparin/ml or greater amounts are present.
To determine the effect of heparin sodium salt on the inhibition of nicking activities of Nt.CviPII-Protein A fusion, reaction tubes containing 10, 5, 2.5, 1.25, 0.62, 0.31, 0.15, and 0 mg/ml heparin, sodium salt were added to a 50 μl reaction, consisting of 5 μl 10×NEBuffer 2, 2.5 units Nt.CviPII-Protein A (as described in Example 1(B)), and 0.5 μg pUC19 DNA and incubated for 40 minutes 37° C. 10 μl of DNA loading dye mix (5×) was added to the samples and were resolved on a 10% polyacrylamide gel. The gel was stained with SYBR® Green (Molecular Probes, Eugene, Oreg.) and scanned on a Typhoon® imager (GE Healthcare Bio-Sciences, Marlborough, Mass.).

[2] = tested on: DNA-Nt.CviPII-Protein A complex; assay: Gel-shift assay: dissociation of DNA-Nt.CviPII-Protein A complex by heparin; assay type: binding
Description: From left to right: C is a control that is DNA in the absence of a NEFP or heparin. 0 is a control in which nicking endonuclease was added to DNA in the absence of heparin. The DNA-NEFP complex (DNA-Nt.CviPII-Protein A complex) is seen as a band at the top of the lane.
To establish that the inhibitory effect of heparin, sodium salt in untethered Nt.CviPII-Protein A fusion activity was due to selective dissociation between DNA substrate and fusion enzyme, a gel-shift assay was performed. Double stranded DNA substrate containing constant amounts of Nt.CviPII binding domains (CCA, 5′[…]-F, F=fluorescein (SEQ ID NO:9)) and 3.2 μM Nt.CviPII-Protein A fusion were combined in the presence of 1×NEBuffer 2 in the absence of magnesium for 30 minutes at room temperature to enable an enzyme-substrate complex to be formed. Increasing amounts of heparin, sodium salt (0, 2.3, 4.6, […], 20, 42, 83, 166, 330 μg/ml) was added to the total 50 μl reaction volume. It was observed that a heparin concentration of greater than 0.2 mgs/ml (at least […]) enabled complete dissociation of the DNA-Nt.CviPII-Protein A complex as observed by the appearance of bands corresponding to DNA alone in a native 6% retardation gel (Thermo Fisher Scientific, Waltham, Mass.). It was concluded that Heparin causes dissociation Nt.CviPII-Protein A fusions from the bound substrate DNA (FIG. 2B).

[3] = tested on: antibody-Protein A/G complex; assay: Effect of heparin on antibody-Protein A/G complex (magnetic beads, SDS gel); assay type: binding; conditions: 0.125, 0.25, 0.5 and 1 mg/ml Heparin, 30 minutes, room temperature, Sodium Salt
From the text: The numbers on the top indicate added heparin quantity in the reaction mgs/ml.
Antibody heavy and light chains that are bound to Protein A/G can be released by boiling and resolved on an SDS gel (B). Any antibody that was free in solution having been eluted or displaced by heparin from Protein A/G could be visualized without boiling (E).
To determine the effect of heparin on the formation of the antibody-Protein A/G complex, 5 mgs of immobilized and covalently cross-linked protein A/G magnetic beads were bound to 50 μgs of IgG molecules in a 50 μl reaction volume containing 1×PBST at room temperature for 30 minutes. The complex was washed 3 times using 1 ml of 1×PBST and incubated with 0.125, 0.25, 0.5 and 1 mg/ml Heparin for 30 minutes at room temperature in 25 μl total volume. The bead-bound (B) and unbound or bead elution (E) fractions were collected, SDS sample buffer (New England Biolabs, Ipswich, Mass.) was added and the samples were incubated at 95° C. for 5 minutes. Both B and E samples were resolved on tricine 10% acrylamide gel and stained for protein.

[4] = tested on: pBR322 circular double stranded DNA; assay: Nicking activity of Protein G/A-gHNH fusion on plasmid DNA (agarose gel); assay type: biochemical; conditions: 1 μg pBR322, NEBuffer 2 with manganese ions, 50 μl, 37° C., 1 hour
Description: The nicking activity of Protein G-HNH was compared to a second non-fused nicking endonuclease (Nt.CviPII) (2 units) in the same gel to determine a generalized and consistent cleavage profile and was also compared to a control in the lane labeled 0 containing no nicking endonuclease either fused or unfused.
Protein G/A-gHNH fusion nicking activity was tested on pBR322 circular double stranded DNA using NEBuffer 2 in which magnesium ions were replaced by the same amount of manganese ions (1 mM). 1 μg of plasmid was used with 0.03 to 2 units of Protein G/A-gHNH fusion enzyme in a two-fold serial dilutions (2, 1, 0.5, 0.25, 0.125, 0.06, 0.03 units) in a total volume of 50 μl incubated at 37° C. for 1 hour. 10 μl of DNA loading dye mix (5×) was added to the nicked DNA. The nicked DNA samples were resolved on a 1% agarose gel and visualized under UV light. DNA fragment size was estimated along with 2 log DNA ladder (New England Biolabs, Ipswich, Mass.) and positive control Nt.CviPII (2 units) of the non-fused nicking endonuclease, (New England Biolabs, Ipswich, Mass.) digested pBR322 DNA (FIG. 1B). […] A representative figure supporting this conclusion is provided in FIG. 1B for Protein G-gHNH fusions.

Sequence of Nt.CviPII-Protein A fusion (as listed by the source): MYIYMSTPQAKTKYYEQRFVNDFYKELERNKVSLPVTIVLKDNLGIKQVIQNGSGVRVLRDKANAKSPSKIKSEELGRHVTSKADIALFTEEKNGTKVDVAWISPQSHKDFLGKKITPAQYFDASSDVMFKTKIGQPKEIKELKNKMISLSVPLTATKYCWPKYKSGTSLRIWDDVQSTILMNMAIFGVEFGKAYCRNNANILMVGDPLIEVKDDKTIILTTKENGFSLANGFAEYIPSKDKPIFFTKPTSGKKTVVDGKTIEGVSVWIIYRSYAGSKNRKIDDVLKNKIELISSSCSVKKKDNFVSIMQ

| amount of fusion enzyme giving partial digestion of the DNA [4] | Molecule | heparin concentration giving total inhibition of nicking (no digestion) [1] | heparin concentration giving total inhibition of nicking (no digestion) ([1]; listed as heparin) | heparin concentration enabling complete dissociation of the DNA-Nt.CviPII-Protein A complex ([2]; 3.2 μM Nt.CviPII-Protein A, fluorescein dsDNA, NEBuffer 2 without magnesium, room temperature) | heparin concentration at which NEFP is released entirely from the DNA ([2]; FIG. 2B legend, buffer without magnesium ions) | effect of heparin on antibody bound to Protein A/G beads ([3]; listed as Heparin) | effect of heparin on antibody bound to Protein A/G beads ([3]; listed as heparin) |
| --- | --- | --- | --- | --- | --- | --- | --- |
| – | Heparin Sodium Salt | 0.15 to 0.31 mg/mL | ≥ 0.3 mg/mL | greater than 0.2 mgs/ml | > 4.6 mg/mL | cannot dissociate Protein A/G-antibody reaction | no elution or displacement of antibody occurred |
| 0.03 units | Protein G-gHNH: NEFP: Protein G fused via linker to gHNH nicking endonuclease, SEQ ID NO: 5 (protein) MKGETTTEAVDAATAEKVFKQYANDNGVDGEWTYDDATKTFTVTEKPEVIDASELTPAVTTYKLVINGKTLKGETTTEAVDAATAEKVFKQYANDNGVDGEWTYDDATKTFTVTEKPEVIDASELTPAVTTYKLVINGKTLKGETTTKAVDAETAEKAFKQYANDNGVDGVWTYDDATKTFTVTEGSATIVKKPLRPCCEFHCYNLTRERYCEEHRYKEKETQQDKNRYYDRFKRDKESTAFYRSKAWERLREQALMRDKGLCLHCKNNRKIKVADMVDHIIPIKVDPSLKLKLENLQSLCNPCHNRKTAEDKKKYG | – | – | – | – | – | – |
